Results on one compound are retold here after article PMC5218480 (PLoS ONE, 2017).

Each structure is given as a SMILES string.

The test system of this test is MV-4-11 cells. The test is described as follows: Gene expression microarray analysis (Affymetrix PrimeView) and GSEA. The test is classed as cell-based, human. More on the design: RFU PODN (11730768_x_at) / Fold change /veh PODN (11730768_x_at) / RFU LINC00158 (11744669_a_at) / Fold change /veh LINC00158 (11744669_a_at) / RFU DUSP10 (11751237_a_at) / Fold change /veh DUSP10 (11751237_a_at) / RFU ID3 (11757404_x_at) / Fold change /veh ID3 (11757404_x_at) / RFU PLEKHG5 (11737974_s_at) / Fold change /veh PLEKHG5 (11737974_s_at) / RFU LRRC4B (11730491_at) / Fold change /veh LRRC4B (11730491_at) / RFU GIMAP4 (11747438_a_at) / Fold change /veh GIMAP4 (11747438_a_at) / RFU KRT8 (11758183_x_at) / Fold change /veh KRT8 (11758183_x_at) / RFU CNN1 (11734310_a_at) / Fold change /veh CNN1 (11734310_a_at) / RFU VPS37D (11726825_at) / Fold change /veh VPS37D (11726825_at) / RFU C10orf10 (11716522_x_at) / Fold change /veh C10orf10 (11716522_x_at) / RFU KIR2DL2 /// KIR2DL4 /// KIR2DL5A /// KIR2DL5B /// KIR2DS1 /// KIR2DS2 /// KIR2DS3 /// KIR2DS4 /// KIR3DL3 /// KIR3DL3 /// KIR3DS1 (11738374_at) / Fold change /veh KIR2DL2 /// KIR2DL4 /// KIR2DL5A /// KIR2DL5B /// KIR2DS1 /// KIR2DS2 /// KIR2DS3 /// KIR2DS4 /// KIR3DL3 /// KIR3DL3 /// KIR3DS1 (11738374_at) / RFU C1QL1 (11718748_at) / Fold change /veh C1QL1 (11718748_at) / RFU TMPRSS4 (11747572_a_at) / Fold change /veh TMPRSS4 (11747572_a_at) / RFU HAMP (11756126_x_at) / Fold change /veh HAMP (11756126_x_at) / RFU RNFT2 (11725882_a_at) / Fold change /veh RNFT2 (11725882_a_at) / RFU NR4A2 (11747474_a_at) / Fold change /veh NR4A2 (11747474_a_at) / RFU ABCC12 (11746883_a_at) / Fold change /veh ABCC12 (11746883_a_at) / RFU TMEM136 (11760407_x_at) / Fold change /veh TMEM136 (11760407_x_at) / RFU CLDN22 /// WWC2 (11732394_at) / Fold change /veh CLDN22 /// WWC2 (11732394_at) / RFU HLA-DPB1 (11760878_x_at) / Fold change /veh HLA-DPB1 (11760878_x_at) / RFU SPINT1 (11716480_a_at) / Fold change /veh SPINT1 (11716480_a_at) / RFU GAP43 (11754022_s_at) / Fold change /veh GAP43 (11754022_s_at) / RFU A4GNT (11735810_at) / Fold change /veh A4GNT (11735810_at) / RFU PRB3 (11715151_x_at) / Fold change /veh PRB3 (11715151_x_at) / RFU TUBB4B (11761932_at) / Fold change /veh TUBB4B (11761932_at) / RFU CAPN14 (11732068_a_at) / Fold change /veh CAPN14 (11732068_a_at) / RFU TMCC2 (11721928_a_at) / Fold change /veh TMCC2 (11721928_a_at) / RFU IRGQ (11745062_a_at) / Fold change /veh IRGQ (11745062_a_at) / RFU FAM174B (11720279_a_at) / Fold change /veh FAM174B (11720279_a_at) / RFU TMPRSS4 (11748680_a_at) / Fold change /veh TMPRSS4 (11748680_a_at) / RFU FAM212B (11763350_a_at) / Fold change /veh FAM212B (11763350_a_at) / RFU PLEKHG5 (11743358_a_at) / Fold change /veh PLEKHG5 (11743358_a_at) / RFU ZSCAN30 (11745921_a_at) / Fold change /veh ZSCAN30 (11745921_a_at) / RFU CMKLR1 (11741424_a_at) / Fold change /veh CMKLR1 (11741424_a_at) / RFU LOC101060620 /// MAPK8IP1 (11723275_at) / Fold change /veh LOC101060620 /// MAPK8IP1 (11723275_at) / RFU SPTSSB (11747773_x_at) / Fold change /veh SPTSSB (11747773_x_at) / RFU PRSS12 (11739890_at) / Fold change /veh PRSS12 (11739890_at) / RFU BIN1 (11741810_x_at) / Fold change /veh BIN1 (11741810_x_at) / RFU WNT11 (11732464_a_at) / Fold change /veh WNT11 (11732464_a_at) / RFU C10orf10 (11716521_a_at) / Fold change /veh C10orf10 (11716521_a_at) / RFU C5orf56 (11738089_at) / Fold change /veh C5orf56 (11738089_at) / RFU CYB561 (11721691_x_at) / Fold change /veh CYB561 (11721691_x_at) / RFU ANKRD19P (11752326_a_at) / Fold change /veh ANKRD19P (11752326_a_at) / RFU OR2T12 /// OR2T33 /// OR2T8 (11738714_s_at) / Fold change /veh OR2T12 /// OR2T33 /// OR2T8 (11738714_s_at) / RFU VCAN (11748164_a_at) / Fold change /veh VCAN (11748164_a_at) / RFU JSRP1 (11732532_at) / Fold change /veh JSRP1 (11732532_at) / RFU KRTAP10-11 (11738290_x_at) / Fold change /veh KRTAP10-11 (11738290_x_at) / RFU MYO3A (11730013_a_at) / Fold change /veh MYO3A (11730013_a_at) / RFU EBF3 (11725865_a_at) / Fold change /veh EBF3 (11725865_a_at) / RFU CAMK2N1 (11719241_x_at) / Fold change /veh CAMK2N1 (11719241_x_at) / RFU C5orf56 (11738088_a_at) / Fold change /veh C5orf56 (11738088_a_at) / RFU OLFML3 (11715873_a_at) / Fold change /veh OLFML3 (11715873_a_at) / RFU LOC100653217 /// NTM (11731650_a_at) / Fold change /veh LOC100653217 /// NTM (11731650_a_at) / RFU MAPK11 (11762145_a_at) / Fold change /veh MAPK11 (11762145_a_at) / RFU FIZ1 (11724087_x_at) / Fold change /veh FIZ1 (11724087_x_at) / RFU OASL (11726364_x_at) / Fold change /veh OASL (11726364_x_at) / RFU SOX15 (11748057_x_at) / Fold change /veh SOX15 (11748057_x_at) / RFU CD79A (11719716_a_at) / Fold change /veh CD79A (11719716_a_at) / RFU HIST1H1D (11736915_at) / Fold change /veh HIST1H1D (11736915_at) / RFU CASKIN2 (11723855_a_at) / Fold change /veh CASKIN2 (11723855_a_at) / RFU LOC730098 (11760151_x_at) / Fold change /veh LOC730098 (11760151_x_at) / RFU OR4N2 (11742367_at) / Fold change /veh OR4N2 (11742367_at) / RFU PRRT2 (11749266_a_at) / Fold change /veh PRRT2 (11749266_a_at) / RFU SNX32 (11753110_a_at) / Fold change /veh SNX32 (11753110_a_at) / RFU CDHR5 (11726645_a_at) / Fold change /veh CDHR5 (11726645_a_at) / RFU RCAN1 (11760418_a_at) / Fold change /veh RCAN1 (11760418_a_at) / RFU FAM167A (11723789_a_at) / Fold change /veh FAM167A (11723789_a_at) / RFU FAM26E (11764081_at) / Fold change /veh FAM26E (11764081_at) / RFU ISYNA1 (11749810_s_at) / Fold change /veh ISYNA1 (11749810_s_at) / RFU ACY1 (11761880_at) / Fold change /veh ACY1 (11761880_at) / RFU 11764098_at / Fold change /veh 11764098_at / RFU SAMD14 (11745864_x_at) / Fold change /veh SAMD14 (11745864_x_at) / RFU NPB (11741838_a_at) / Fold change /veh NPB (11741838_a_at) / RFU TMPRSS6 (11731388_a_at) / Fold change /veh TMPRSS6 (11731388_a_at) / RFU KRTAP10-2 (11738614_at) / Fold change /veh KRTAP10-2 (11738614_at) / RFU ARHGAP8 /// PRR5-ARHGAP8 (11727945_x_at) / Fold change /veh ARHGAP8 /// PRR5-ARHGAP8 (11727945_x_at) / RFU KRTAP5-7 /// NADSYN1 (11734609_at) / Fold change /veh KRTAP5-7 /// NADSYN1 (11734609_at) / RFU RASL12 (11751679_a_at) / Fold change /veh RASL12 (11751679_a_at) / RFU CDKN2B (11736163_a_at) / Fold change /veh CDKN2B (11736163_a_at) / RFU PRF1 (11729649_at) / Fold change /veh PRF1 (11729649_at) / RFU, ZNF638 /// ZNF638-IT1 / Fold change vs veh, ZNF638 /// ZNF638-IT1 / RFU, PANK3 / Fold change vs veh, PANK3 / RFU, SH3YL1 / Fold change vs veh, SH3YL1 / RFU, ZEB2 / Fold change vs veh, ZEB2 / RFU, NRIP1 / Fold change vs veh, NRIP1 / RFU, PTTG1IP / Fold change vs veh, PTTG1IP / RFU, CAPN2 / Fold change vs veh, CAPN2 / RFU, MED14 / Fold change vs veh, MED14 / RFU, SNORA58 / Fold change vs veh, SNORA58 / RFU, C1orf63 / Fold change vs veh, C1orf63 / RFU, LRRFIP1 / Fold change vs veh, LRRFIP1 / RFU, NDUFAF7 / Fold change vs veh, NDUFAF7 / RFU, SLC12A2 / Fold change vs veh, SLC12A2 / RFU, IBTK / Fold change vs veh, IBTK / RFU, ESF1 / Fold change vs veh, ESF1 / Fold change vs veh, TMEM50B / RFU, TAOK1 / Fold change vs veh, TAOK1 / RFU, ACBD3 / Fold change vs veh, ACBD3 / RFU, TMA16 / Fold change vs veh, TMA16 / RFU, RWDD3 / Fold change vs veh, RWDD3 / RFU, BCAT1 / Fold change vs veh, BCAT1 / RFU, EDEM3 / Fold change vs veh, EDEM3 / RFU, TMEM33 / Fold change vs veh, TMEM33 / RFU, WDR75 / Fold change vs veh, WDR75 / RFU, AHCTF1 / Fold change vs veh, AHCTF1 / RFU, TFRC / Fold change vs veh, TFRC / RFU, ZDHHC17 / Fold change vs veh, ZDHHC17 / RFU, NOM1 / Fold change vs veh, NOM1 / RFU, ARL8B / Fold change vs veh, ARL8B / RFU, ZBTB11 / Fold change vs veh, ZBTB11 / RFU, TAMM41 / Fold change vs veh, TAMM41 / RFU, KIAA1704 /// LOC100996395 / Fold change vs veh, KIAA1704 /// LOC100996395 / RFU, ING1 / Fold change vs veh, ING1 / RFU, TRMT61B / Fold change vs veh, TRMT61B / RFU, FUBP3 / Fold change vs veh, FUBP3 / RFU, TP53 / Fold change vs veh, TP53 / RFU, TNKS2 / Fold change vs veh, TNKS2 / RFU, ZFP14 / Fold change vs veh, ZFP14 / RFU, ACTR2 / Fold change vs veh, ACTR2 / RFU, PPP3R1 / Fold change vs veh, PPP3R1 / RFU, PIK3R1 / Fold change vs veh, PIK3R1 / RFU, HNRNPA1 / Fold change vs veh, HNRNPA1 / RFU, RNF170 / Fold change vs veh, RNF170 / RFU, ZNF28 / Fold change vs veh, ZNF28 / RFU, RNGTT / Fold change vs veh, RNGTT / RFU, OGT / Fold change vs veh, OGT / RFU, BRD1 / Fold change vs veh, BRD1 / RFU, MARS / Fold change vs veh, MARS / RFU, ZNF655 / Fold change vs veh, ZNF655 / RFU, FAHD1 / Fold change vs veh, FAHD1 / RFU, BDP1 / Fold change vs veh, BDP1 / RFU, LRRCC1 / Fold change vs veh, LRRCC1 / RFU, ARID1A / Fold change vs veh, ARID1A / RFU, ZNF146 / Fold change vs veh, ZNF146 / RFU, ZNF330 / Fold change vs veh, ZNF330 / RFU, GPN3 / Fold change vs veh, GPN3 / RFU, C9orf123 / Fold change vs veh, C9orf123 / RFU, N4BP2L2 / Fold change vs veh, N4BP2L2 / RFU, ARFIP1 / Fold change vs veh, ARFIP1 / RFU, FAM179B / Fold change vs veh, FAM179B / RFU, BCL10 / Fold change vs veh, BCL10 / RFU, UHRF1BP1L / Fold change vs veh, UHRF1BP1L / RFU, BET1 / Fold change vs veh, BET1 / RFU, CNOT2 / Fold change vs veh, CNOT2 / RFU, ZNF268 / Fold change vs veh, ZNF268 / Fold change vs veh, ZNF507 / RFU, DGCR2 / Fold change vs veh, DGCR2 / RFU, WDSUB1 / Fold change vs veh, WDSUB1 / Fold change vs veh, HSP90B1 /// MIR3652 / RFU, ADSS / Fold change vs veh, ADSS / RFU, GK / Fold change vs veh, GK / RFU, ZNF148 / Fold change vs veh, ZNF148 / RFU, TAF9 / Fold change vs veh, TAF9 / RFU, SLC1A5 / Fold change vs veh, SLC1A5 / RFU, SLMO2 / Fold change vs veh, SLMO2 / RFU, ABCC4 / Fold change vs veh, ABCC4 / RFU, LOC101060439 /// RAP1B / Fold change vs veh, LOC101060439 /// RAP1B / RFU, RFX7 / Fold change vs veh, RFX7 / RFU, GTPBP10 / Fold change vs veh, GTPBP10 / RFU, CNEP1R1 / Fold change vs veh, CNEP1R1 / RFU, BIVM-ERCC5 /// ERCC5 / Fold change vs veh, BIVM-ERCC5 /// ERCC5 / RFU, ILF3 / Fold change vs veh, ILF3 / RFU 11762660_at / Fold change /veh 11762660_at / RFU VCAN (11757783_s_at) / Fold change /veh VCAN (11757783_s_at) / RFU DDX43 (11728927_at) / Fold change /veh DDX43 (11728927_at) / RFU KRT8 (11758188_x_at) / Fold change /veh KRT8 (11758188_x_at) / RFU NKD1 (11759106_at) / Fold change /veh NKD1 (11759106_at) / RFU SRD5A1 (11742802_a_at) / Fold change /veh SRD5A1 (11742802_a_at) / RFU TPSAB1 /// TPSB2 (11721975_s_at) / Fold change /veh TPSAB1 /// TPSB2 (11721975_s_at) / RFU GSTM3 (11746129_a_at) / Fold change /veh GSTM3 (11746129_a_at) / RFU IL23R (11737362_x_at) / Fold change /veh IL23R (11737362_x_at) / RFU TMEM51 (11727254_a_at) / Fold change /veh TMEM51 (11727254_a_at) / RFU PIWIL2 (11732686_x_at) / Fold change /veh PIWIL2 (11732686_x_at) / RFU ORM1 (11744905_x_at) / Fold change /veh ORM1 (11744905_x_at) / RFU CCDC152 (11743942_at) / Fold change /veh CCDC152 (11743942_at) / RFU ECM1 (11717891_a_at) / Fold change /veh ECM1 (11717891_a_at) / RFU IL23R (11748794_a_at) / Fold change /veh IL23R (11748794_a_at) / RFU TNFAIP8L3 (11732012_x_at) / Fold change /veh TNFAIP8L3 (11732012_x_at) / RFU MBOAT4 (11741988_at) / Fold change /veh MBOAT4 (11741988_at) / RFU 11764193_at / Fold change /veh 11764193_at / RFU TMEM53 (11763286_at) / Fold change /veh TMEM53 (11763286_at) / RFU MAGEB2 (11727129_at) / Fold change /veh MAGEB2 (11727129_at) / RFU TMEM200A (11744735_a_at) / Fold change /veh TMEM200A (11744735_a_at) / RFU CCDC152 (11751479_a_at) / Fold change /veh CCDC152 (11751479_a_at) / RFU FAM211A (11726209_a_at) / Fold change /veh FAM211A (11726209_a_at) / RFU RGS16 (11746705_a_at) / Fold change /veh RGS16 (11746705_a_at) / RFU VCAN (11755009_s_at) / Fold change /veh VCAN (11755009_s_at) / RFU RHOB (11743442_s_at) / Fold change /veh RHOB (11743442_s_at) / RFU RGS16 (11720943_a_at) / Fold change /veh RGS16 (11720943_a_at) / RFU RGS16 (11720944_at) / Fold change /veh RGS16 (11720944_at) / RFU, VPS4B / Fold change vs veh, VPS4B / RFU, CREB1 / Fold change vs veh, CREB1 / RFU, DNAJC13 / Fold change vs veh, DNAJC13 / RFU, GNAQ / Fold change vs veh, GNAQ / RFU, CDK5R1 / Fold change vs veh, CDK5R1 / RFU, ZRANB3 / Fold change vs veh, ZRANB3 / RFU, CUL4A / Fold change vs veh, CUL4A / RFU, CCNY / Fold change vs veh, CCNY / RFU, UFL1 / Fold change vs veh, UFL1 / RFU, COG3 / Fold change vs veh, COG3 / RFU, DIAPH2 / Fold change vs veh, DIAPH2 / RFU, SKA2 / Fold change vs veh, SKA2 / RFU, AFF3 / Fold change vs veh, AFF3 / RFU, LMF1 / Fold change vs veh, LMF1 / RFU, IPO11 / Fold change vs veh, IPO11 / RFU, DFFB / Fold change vs veh, DFFB / RFU, FOXP1 / Fold change vs veh, FOXP1 / RFU, CARD8 / Fold change vs veh, CARD8 / RFU, STRN3 / Fold change vs veh, STRN3 / RFU, ADK / Fold change vs veh, ADK / RFU, RASSF2 / Fold change vs veh, RASSF2 / RFU, WIPF1 / Fold change vs veh, WIPF1 / RFU, LARP1B / Fold change vs veh, LARP1B / RFU, RASA1 / Fold change vs veh, RASA1 / RFU, RB1 / Fold change vs veh, RB1 / RFU, PPFIA1 / Fold change vs veh, PPFIA1 / RFU, MAT2A / Fold change vs veh, MAT2A / RFU, CCT5 / Fold change vs veh, CCT5 / RFU, WDR92 / Fold change vs veh, WDR92 / RFU, CUX1 / Fold change vs veh, CUX1 / RFU, TTC7A / Fold change vs veh, TTC7A / RFU, TMEM135 / Fold change vs veh, TMEM135 / RFU, DEPTOR / Fold change vs veh, DEPTOR / RFU, CPM / Fold change vs veh, CPM / RFU, DNAJB6 / Fold change vs veh, DNAJB6 / RFU, CACNA2D3 / Fold change vs veh, CACNA2D3 / RFU, DTX4 / Fold change vs veh, DTX4 / RFU, TFCP2 / Fold change vs veh, TFCP2 / RFU, GMCL1 /// GMCL1P1 / Fold change vs veh, GMCL1 /// GMCL1P1 / RFU, AEBP2 / Fold change vs veh, AEBP2 / RFU, SNHG1 /// SNORD22 /// SNORD25 /// SNORD26 /// SNORD27 /// SNORD28 /// SNORD29 /// SNORD31 / Fold change vs veh, SNHG1 /// SNORD22 /// SNORD25 /// SNORD26 /// SNORD27 /// SNORD28 /// SNORD29 /// SNORD31 / Fold change (Aza/veh), C12orf56 (ProbeSet 11735607_a_at) / Fold change (ACY-1035/veh), C12orf56 (ProbeSet 11735607_a_at) / Fold change (Aza/veh), FGFR1OP (ProbeSet 11751329_s_at) / Fold change (ACY-1035/veh), FGFR1OP (ProbeSet 11751329_s_at) / Fold change (Aza/veh), VPS36 (ProbeSet 11739960_a_at) / Fold change (ACY-1035/veh), VPS36 (ProbeSet 11739960_a_at) / RFU SYPL1 (11715823_x_at) / Fold change /veh SYPL1 (11715823_x_at) / RFU IGFBP7 (11715501_s_at) / Fold change /veh IGFBP7 (11715501_s_at) / RFU REEP3 (11722064_at) / Fold change /veh REEP3 (11722064_at) / RFU IGLL1 (11728026_x_at) / Fold change /veh IGLL1 (11728026_x_at): dose or concentration left out as unconfirmed. The conditions noted are these: MV-4-11 cells, 48 hours.

As for `Nc1ncn([C@@H]2O[C@H](CO)[C@@H](O)[C@H]2O)c(=O)n1` [azacitidine], the “Fold change /veh EBF3 (11725865_a_at)” value worked out at 1.12.
